Source: patent US20120164671A1, “METHODS FOR MONITORING IMMUNOSUPPRESSANT DRUG LEVELS, RENAL FUNCTION, AND HEPATIC FUNCTION USING SMALL VOLUME SAMPLES” (priority 2008, published 2012)
Where two headings read alike, the source gives them in different places.

Conditions: human, in vivo
Protocol: The patient collected an approximately 500 μL blood sample from a fingerstick. The small volume blood sample was collected as described above, using a K2-EDTA collection tube, and timely transported to the testing facility. At the testing facility, the whole blood sample in K2-EDTA was split into 3 fractions: (1) 50 μL for immunosuppressant drug monitoring using tandem mass spectrometry, (2) 50 μL for complete blood count by flow cytometry, and (3) the remainder for various other tests.
The first fraction was prepared by adding 200 μL of ZnSO4 (zinc sulfate) to the fraction, and the cells were lysed by vortexing for 10 seconds. Then 500 μL of a solution containing acetonitrile and internal reference standards (ascomycin: 2 nanograms (ng)/ml, along with cyclosporin D 25 ng/ml) was added, and the sample was mixed by vortexing for 20 seconds. The tubes were then spun down for 4 minutes at 14,000×g (14,000 times gravity). The supernatant was decanted into vials for assay by mass spectrometry.
The patient collected an approximately 500 μL blood sample from a fingerstick. The small volume blood sample was collected using a K2-EDTA collection tube, transported to the testing facility, and divided into three fractions as described above. Each fraction was prepared as described above for the adult patient, and the same immunosuppressant drug monitoring of immunosuppressants, complete blood count, assays for renal function, and assays for hepatic function were performed.

Result (blood level) (female) [µg/L] | Result (blood level) (male) [µg/L] | SMILES
3.10 | 5.10 | CO[C@H]1C[C@@H]2CC[C@@H](C)[C@@](O)(O2)C(=O)C(=O)N2CCCC[C@H]2C(=O)O[C@H]([C@H](C)C[C@@H]2CC[C@@H](O)[C@H](OC)C2)CC(=O)[C@H](C)/C=C(\C)[C@@H](O)[C@@H](OC)C(=O)[C@H](C)C[C@H](C)/C=C/C=C/C=C/1C [Rapamycin]
10.80 | 6.80 | C=CC[C@@H]1/C=C(\C)C[C@H](C)C[C@H](OC)[C@H]2O[C@@](O)(C(=O)C(=O)N3CCCC[C@H]3C(=O)O[C@H](/C(C)=C/[C@@H]3CC[C@@H](O)[C@H](OC)C3)[C@H](C)[C@@H](O)CC1=O)[C@H](C)C[C@@H]2OC [Tacrolimus]
